Laboratory results as given in patent US20220295793A1 (priority 2019, published 2022).
Where two headings read alike, the source gives them in different places.

Key:
Phytophthora infestans = type: in vivo; details: tomatoes, preventive spray, evaluated 3 days after inoculation
cucumber downy mildew = details: R. Zhang, J. Pesticide Sci., vol. 39, no. 1, 2014, pages 43-47; cited from earlier work

CS(=O)(=O)Oc1cccc(Cl)c1C1CC(c2csc(C3CCN(C(=O)Cn4nc(C(F)F)cc4C(F)F)CC3)n2)=NO1 (racemic) [(A) fluoxapiprolin, 2-{(5RS)-3-[2-(1-{[3,5-bis(difluoromethyl)-1H-pyrazol-1-yl]acetyl}-4-piperidyl)thiazol-4-yl]-4,5-dihydroisoxazol-5-yl}-3-chlorophenyl methanesulfonate]
Efficacy in % found (Phytophthora infestans; 0.02 ppm a.i.): 54%
Efficacy in % found (Phytophthora infestans; 0.04 ppm a.i.): 79%

COc1c(F)c(F)c(C(=O)NCc2ncc(C(F)(F)F)cc2Cl)c(F)c1F [(B) fluopimomide, N-{[3-chloro-5-(trifluoromethyl)-2-pyridyl]methyl}-2,3,5,6-tetrafluoro-4-methoxybenzamide]
Efficacy in % found (Phytophthora infestans; 2.5 ppm a.i.): 0%
Efficacy in % found (Phytophthora infestans; 5 ppm a.i.): 0%
Efficacy in % found (Phytophthora infestans; 10 ppm a.i.): 0%
controlling cucumber downy mildew (cucumber downy mildew): highly effective
